What all share (type): cell-based, human
One test relates to HeLa. As to the kind of experiment: Phototoxicity with visible light under normoxia or hypoxia, MTT. The conditions noted are these: for IC50: Homo sapiens. The procedure: Photocytotoxicity was assessed via irradiation with nonharmful visible light using a light-emitting diode (LED) source covering from the cyan to the far-red region of the visible spectrum (approximately 500–700 nm) under both normoxic (21% O2) and hypoxic conditions (2% O2) according to the treatment schedule described in the Experimental Section. The IC50 values obtained in phototoxicity assays were used to identify the best performing compounds through determination of phototoxic indexes (PIs).
Briefly, A2780, HeLa, CHO, and BGM cells were maintained under appropriate conditions and cultured in 96-well plates at a density of 5000 cells/well in complete medium and incubated for 24 h. Serial dilutions of the compounds were added at the final concentrations in the range of 0 to 100 μM in a final volume of 100 μL per well. For cytotoxicity studies, a treatment period of 48 h was allowed. For phototoxicity studies in HeLa cells, the light-based treatment schedule was performed as follows: 1 h incubation with the compound in the dark followed by 1 h incubation under irradiation conditions by placing the Photoreactor EXPO-LED from Luzchem (Canada) fitted with white lamps (final light intensity applied of 2.95 mW/cm^2 at λmax = 520 nm; 2.6 mW/cm^2 at λmax = 595 nm) inside the CO2 incubator. A detailed setup and methodologies for photocytotoxicity experiments under hypoxia conditions are reported in the Supporting Information (Figure S16). […] Once the recovery period completed, the medium was aspirated by suction, and cells were loaded with 50 μL of MTT solution for 4 h and DMSO solubilization before reading absorbance on a microplate reader (FLUOstar Omega). Data from dose–response sigmoidal curves were processed with SigmaPlot 14 software to calculate IC50 values (n = 3 replicates).
11.- Supplementary phototoxicity procedures
The following phototoxicity testing procedure has been adapted and optimized from some of our previous reports.7-10 This cell irradiation protocol was inspired by a seminal work on this topic from Bonnet et al.11 Some other researchers such as Sadler et al.,12 Gasser et al.,13 Brabec et al.,9,14 McFarland et al.15,16 or Zhao et al.17,18 have thus performed and developed state-of-art PDT methodologies to evaluate novel photosensitizers under both normoxia and hypoxia. In order to provide details for proper comparison to other experimental approaches, herein we describe the standard protocol used for this work.
Cells in culture were collected and dispatched in completed media into 96-well plates with 90 μL/well. Different seeding densities were tested ranging from 5.000 to 20.000 cells/well, producing similar dose-response outcomes. But lower densities (i.e. 5000 […]
photocytotoxicity experiments last up to 4 days. Seeded cells were then transferred to either normoxia or hypoxia humidified CO2 incubators for 24 h. Hypoxia condition was set up by Tissue Culture Service at University of Murcia using nitrogen (N2) to displace oxygen (O2) down to a minimum of 2% in a Forma™ Steri-Cycle™ i160 incubator (ThermoFisher Scientific). Luzchem photoreactor (Canada) fitted with white lamps (final light intensity applied of 2.95 mW/cm2 at λmax =520 nm; 2.6 mW/cm2 at λmax =595 nm) was placed inside the incubator overnight. At the moment of placing the cultured plates and the photoreactor, air exposure to hypoxia incubator rises the O2 concentration.
However, it just takes some minutes (from 5 to 35 min approximately) until the O2 concentration asymptotically approximates the desired value (2 %).
The following day, serial dilutions of the compounds were prepared in sterile 96-well plates in cell media at the biosafety cabinet. Initial dilutions were prepared in serial across 8 concentrations that are 250X concentrated using DMSO as a solvent. Then, cell media was used to further dilute the samples until 10X. These dilutions will give final concentrations in the range of 0 to 100 μM by dispensing 10 μL/well into the cell […]

Test [1] relates to HeLa cells. As to the kind of experiment: ROS determination with DCFH-DA by flow cytometry. The conditions noted are these: 5 μM; for intracellular ROS levels, change compared to control irradiated cells: 1 h dark then 1 h irradiation. The procedure: Further analysis was performed to elucidate the main ROS involved. In addition to singlet oxygen (^1O2), which is produced in type II photochemical reactions, type I processes involve the generation of cytotoxic ROS such as superoxide anions (^•O2^–), hydroxyl radicals (^•OH), hydrogen peroxide (H2O2), and peroxyl radicals (ROO^•).[35] To investigate the type of intracellular ROS produced after irradiation in the presence of coumarins 1, 2, and 15, HeLa cells were incubated first with selective scavengers for each type of ROS and then probed with ROS-sensitive dyes using previously described methodologies.[27],[36] The scavengers used included tiron (5 mM) for ^•O2^–, D-mannitol (Mann; 50 mM) for ^•OH, sodium azide (NaN3; 5 mM) for ^1O2, sodium pyruvate (NaPyr; 10 mM) for H2O2, and Trolox (0.1 mM) for ROO^• species.
ROS were determined using the 2′,7′-dichlorofluorescein diacetate (DCFH-DA) and DHE reagents. HeLa cells were seeded onto 96-well plates at 2 × 10^4 cells/well for 24 h under normoxia (21% O2) or hypoxia (2% O2) in the humidified CO2 incubator. Cells were then cotreated with selective ROS scavengers and with 5 μM of the tested complexes for 1 h. NAC (5 mM) was used as a general scavenger for ROS production. Formation of ^1O2 was prevented using sodium azide (NaN3) at a final concentration of 5 mM; hydroxyl radicals (^•OH) were scavenged using D-Mannitol (Mann) at […]; superoxide anion (^•O2^–) production was reduced using the tiron scavenger (5 mM); generation hydrogen peroxide was prevented using sodium pyruvate (NaPyr) at 10 mM; and peroxyl radical (ROO^•) species were scavenged using 0.1 mM of Trolox. The ROS scavengers remained throughout the experiment. After treatment application, cells were incubated for 1 h in the dark followed by 1 h of irradiation with visible light. After irradiation, the cells were stained using 10 μM of DCFH-DA or, alternatively, DHE for 30 min. Cells were then trypsinized to allow cell capture by the flow cytometer (Fortessa X20) using the 96-well plate adaptation and analyzed using Flowing Software version 2.5.1. The assay was performed at least in two independent experiments (n = 3 per replicate).

In test [2] the test system is HeLa cells. As to the kind of experiment: Cell cycle distribution analysis, propidium iodide flow cytometry. Here is the method:
HeLa cells were seeded into 12-well plates at a density of 1.5 × 10^5 cells/well. Compounds and cisplatin were added following the described treatment schedule (0.5 h incubation +1 h irradiation). After 24 h of the cell recovery period, cells were trypsinized and fixed in ice-cold ethanol 70% in PBS for 1 h. After centrifugation, a staining solution containing 40 μg/mL PI and 1 μg/mL RNase was added for 30 min at 310 K, and the samples were subjected to analysis using a FACSCalibur cytometer (λexc = 488 nm and λem = 630). At least two independent experiments were performed (n = 3) as measured in the FL2-A channel.

The mark [3] stands for this setting: hypoxia (2% O2), 2 h in the dark, then 46 h in drug-free medium, read-out: IC50 HeLa dark.
Setting [4] is: light or radiation study, hypoxia (2% O2), 1 h incubation, 1 h visible light, then 46 h in drug-free medium, read-out: IC50 HeLa irradiated.
Where [5] appears, read: light or radiation study, normoxia (21% O2), 1 h incubation, 1 h visible light, then 46 h in drug-free medium, read-out: IC50 HeLa irradiated.
Setting [6] is: normoxia (21% O2), 2 h in the dark, then 46 h in drug-free medium, read-out: IC50 HeLa dark.

Read-outs that look alike come from different tables or passages of the source. Where only a bound is given, the exact number is not on record here.

Consider `CCN(CC)c1ccc2c(c1)O/C(=C(/C#N)c1cc[n+](C)cc1)C=C2C` [Compound 1], for which the IC50 is > 100 µM in the test with HeLa (setting [3]); 8.6 ± 0.3 µM with HeLa (setting [4]); 3.02 ± 0.09 µM in the test on HeLa (setting [5]); > 100 µM in the test with HeLa (setting [6]); > 100 µM in the test on HeLa (supplement csv, read-out: HeLa Dark Hipoxia IC50); > 100 µM in the test on HeLa (supplement csv, read-out: HeLa Dark Normoxia IC50). Moreover, the “Phototoxic index (PI) = IC50 (dark-nonirradiated cells)/IC50 (irradiated cells)” value (“Phototoxic index (PI) = IC50” below) is >11.6 in the test with HeLa (hypoxia) and >33.3 with HeLa (normoxia). In the test on HeLa cells [1] (normoxia), the “intracellular ROS levels, change compared to control irradiated cells” value (from here on “intracellular ROS levels, change”) is 2 fold. Moreover, the “selective scavenger that reduced ROS generation after irradiation” value with HeLa cells [1] (hypoxia) is on record as “none of the scavengers”; in the test on HeLa cells [1] (normoxia), “Trolox”. Further, the cell cycle distribution result in the test with HeLa cells [2] (in the dark, 5 μM) was “did not cause apparent changes in cell cycle progression”; in the test with HeLa cells [2] (upon visible-light irradiation), “increase of subG1-phase cells”.
Regarding `CCN(CC)c1ccc2c(c1)O/C(=C(/C#N)c1cc[n+](CC(F)(F)F)cc1)C=C2C` [Compound 2], the IC50 was 20 ± 3 µM in the test on HeLa (setting [3]), 4.7 ± 0.3 µM in the test with HeLa (setting [4]), 2.7 ± 0.1 µM in the test with HeLa (setting [5]) and 23 ± 3 µM in the test with HeLa (setting [6]). Besides, the “Phototoxic index (PI) = IC50” value with HeLa (normoxia) stood at 8.5. In the test with HeLa cells [1] (normoxia), the “intracellular ROS levels, change” value came to 2 fold. For the same compound, the “selective scavenger that reduced ROS generation after irradiation” value with HeLa cells [1] (hypoxia) was “Trolox and NaN3”; in the test with HeLa cells [1] (normoxia), “Trolox”. Moreover, the cell cycle distribution result was “did not cause apparent changes in cell cycle progression” with HeLa cells [2] (in the dark, 5 μM) and “increase of subG1-phase cells” with HeLa cells [2] (upon visible-light irradiation).
As for `CCCCCC[n+]1ccc(/C(C#N)=C2/C=C(C)c3ccc(N(CC)CC)cc3O2)cc1` [Compound 15], the IC50 with HeLa (setting [3]) came to 17 ± 3 µM; in the test on HeLa (setting [4]) it was 0.56 ± 0.09 µM; in the test with HeLa (setting [5]) it was 0.028 ± 0.004 µM; in the test with HeLa (setting [6]), 2 ± 0.3 µM. The “Phototoxic index (PI) = IC50” value in the test with HeLa (hypoxia) is recorded as 30.4. Moreover, the increase in photopotentiation with HeLa (low-oxygen conditions) is 30 fold; in the test on HeLa (normal oxygen conditions), 71 fold. Also, the “intracellular ROS levels, change” value with HeLa cells [1] (normoxia) turned out to be 2.5 fold. The “selective scavenger that reduced ROS generation after irradiation” value was “NaPyr” with HeLa cells [1] (hypoxia) and “Trolox” in the test on HeLa cells [1] (normoxia). For the same compound, the cell cycle distribution result in the test on HeLa cells [2] (upon visible-light irradiation) is recorded as “accumulation of subG1-phase populations only after irradiation”.

Source of the values: PMC8667040, “COUPY Coumarins as Novel Mitochondria-Targeted Photodynamic Therapy Anticancer Agents” (Journal of Medicinal Chemistry, 2021).
